# Experiments:
# BACE1 = target: T1, BACE1 (Homo sapiens, UniProt P56817); test: BACE1 biochemical FRET based assay; conditions: Method 1: recombinant BACE1 1 μg/ml, 120 min at room temperature, pH 5.0; for IC50: read-out: Biochemical FRET based assay pIC50 (converted)
# T1 construct: recombinant BACE1 protein in a final concentration of 1 μg/ml
# Source text: BACE1 Biochemical Fret Based Assay
# (§1) This assay is a Fluorescence Resonance Energy Transfer Assay (FRET) based assay. The substrate for this assay is an APP derived 13 amino acids peptide that contains the ‘Swedish’ Lys-Met/Asn-Leu mutation of the amyloid precursor protein (APP) beta-site APP-cleaving enzyme cleavage site. This substrate also contains two fluorophores: (7-methoxycoumarin-4-yl) acetic acid (Mca) is a fluorescent donor with excitation wavelength at 320 nm and emission at 405 nm and 2,4-Dinitrophenyl (Dnp) is a proprietary quencher acceptor. […] Upon cleavage by BACE1, the fluorophore Mca is separated from the quenching group Dnp, restoring the full fluorescence yield of the donor. The increase in fluorescence is linearly related to the rate of proteolysis.
# Briefly in a 384-well format recombinant BACE1 protein in a final concentration of 1 μg/ml is incubated for 120 minutes at room temperature with 10 μm substrate in incubation buffer (40 mM Citrate buffer pH 5.0, 0.04% PEG, 4% DMSO) in the absence or presence of compound. Next the amount of proteolysis is directly measured by fluorescence measurement at T=0 and T=120 (excitation at 320 nm and emission at 405 nm). Results are expressed in RFU (Relative Fluorescence Units), as difference between T120 and T0.
# (§2) A best-fit curve is fitted by a minimum sum of squares method to the plot of % Controlmin versus compound concentration. From this an IC50 value (inhibitory concentration causing 50% inhibition of activity) can be obtained.
# BACE2 = target: T2, BACE2 (Homo sapiens, UniProt Q9Y5Z0); test: BACE2 biochemical FRET based assay; conditions: recombinant BACE2, 450 minutes at room temperature, pH 5.0; for IC50: read-out: Biochemical FRET based assay pIC50 (converted)
# T2 construct: recombinant BACE2 protein in a final concentration of 0.4 μg/ml
# T2 sequence (Q9Y5Z0 63-518): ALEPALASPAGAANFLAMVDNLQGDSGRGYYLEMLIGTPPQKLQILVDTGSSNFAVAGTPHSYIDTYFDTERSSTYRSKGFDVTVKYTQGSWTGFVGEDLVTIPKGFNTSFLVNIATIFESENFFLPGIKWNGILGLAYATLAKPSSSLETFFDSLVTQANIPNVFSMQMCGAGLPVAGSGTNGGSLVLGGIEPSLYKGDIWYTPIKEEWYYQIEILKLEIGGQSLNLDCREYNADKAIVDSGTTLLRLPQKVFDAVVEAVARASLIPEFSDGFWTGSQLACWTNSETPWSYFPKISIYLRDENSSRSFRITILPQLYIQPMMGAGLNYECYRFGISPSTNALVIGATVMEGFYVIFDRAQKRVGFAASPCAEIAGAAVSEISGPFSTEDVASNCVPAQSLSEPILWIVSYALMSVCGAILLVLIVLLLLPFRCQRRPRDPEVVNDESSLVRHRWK
# Source text: BACE2 Biochemical FRET Based Assay
# as §1, with “assay” for “assay is an APP derived 13 amino acids peptide that”, “the beta-site APP-cleaving enzyme,” for “BACE1,”
# Briefly in a 384-well format recombinant BACE2 protein in a final concentration of 0.4 μg/ml is incubated for 450 minutes at room temperature with 10 μM substrate in incubation buffer (50 mM Citrate buffer pH 5.0, 0.05% PEG, no DMSO) in the absence or presence of compound. Next the amount of proteolysis is directly measured by fluorescence measurement at T=0 and T=450 (excitation at 320 nm and emission at 405 nm). Results are expressed in RFU (Relative Fluorescence Units), as difference between T450 and T0.
# as §2
# [1] = test system: Abeta 1-42 produced and secreted into the medium of human neuroblastoma SKNBE2 cells; test: Cellular αLisa assay in SKNBE2 cells; assay type: cell-based; conditions: human neuroblastoma SKNBE2 cells expressing hAPP695, 18 hours incubation; for IC50: Homo sapiens, SKNBE2, 18 h, read-out: Cellular αLisa assay in SKNBE2 cells Abeta 42 pIC50 (converted)
# Procedure: Cellular αLisa Assay in SKNBE2 Cells
# In two αLisa assays the levels of Abeta 1-42 produced and secreted into the medium of human neuroblastoma SKNBE2 cells are quantified. The assay is based on the human neuroblastoma SKNBE2 expressing the wild type Amyloid Precursor Protein (hAPP695). The compounds are diluted and added to these cells, incubated for 18 hours and then measurements of Abeta 1-42 are taken. Abeta 1-42 are measured by sandwich αLisa. αLisa is a sandwich assay using biotinylated antibody AbN/25 attached to streptavidin coated beads and antibody cAb42/26 conjugated acceptor beads for the detection of Abeta 1-42 respectively. In the presence of Abeta 1-42, the beads come into close proximity. The excitation of the donor beads provokes the release of singlet oxygen molecules that trigger a cascade of energy transfer in the acceptor beads, resulting in light emission. Light emission is measured after 1 hour incubation (excitation at […] and emission at 615 nm).
# as §2
# T1 sequence (P56817 46-501): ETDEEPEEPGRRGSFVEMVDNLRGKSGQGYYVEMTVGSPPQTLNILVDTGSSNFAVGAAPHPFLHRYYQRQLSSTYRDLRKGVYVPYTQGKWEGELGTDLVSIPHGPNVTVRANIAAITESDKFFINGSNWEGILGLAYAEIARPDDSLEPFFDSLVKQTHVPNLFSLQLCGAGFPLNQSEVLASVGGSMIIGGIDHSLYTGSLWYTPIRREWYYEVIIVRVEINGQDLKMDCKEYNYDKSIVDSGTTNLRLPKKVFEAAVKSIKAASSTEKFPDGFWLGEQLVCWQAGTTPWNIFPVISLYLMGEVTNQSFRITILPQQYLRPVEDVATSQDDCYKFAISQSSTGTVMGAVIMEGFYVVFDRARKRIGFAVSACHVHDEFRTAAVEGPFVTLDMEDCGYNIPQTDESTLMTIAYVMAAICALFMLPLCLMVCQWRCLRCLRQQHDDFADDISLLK
SMILES,IC50 (BACE1),IC50 (BACE2),IC50 [1],Biochemical FRET based assay pIC50 (BACE1),Biochemical FRET based assay pIC50 (BACE2),Cellular αLisa assay in SKNBE2 cells Abeta 42 pIC50 [1]
COc1cc(C(=O)Nc2ccc(F)c([C@]34CO[C@H](C(C)(F)F)[C@H]3C[C@@](C)(C#N)C(N)=N4)c2)ncn1 [18a],24.5 nM,1200 nM,138 nM,,,
C[C@@]1(C#N)C[C@H]2[C@H](C(F)(F)F)OC[C@@]2(c2cc(NC(=O)c3ccc(F)cn3)ccc2F)N=C1N [2e],,,,<5,<5,<5.05
C[C@@]1(C#N)C[C@@H]2[C@@H](C(F)(F)F)OC[C@]2(c2cc(NC(=O)c3ncc(Cl)cn3)ccc2F)N=C1N [8c],,,,8.75,8.46,8.17
"C[C@H]1OC[C@]2(c3cc(NC(=O)c4ccc(F)cn4)ccc3F)N=C(N)[C@](C)(C#N)C[C@H]12 (single isomer, unassigned) [10b]",,,,8.25,8.28,8.23
C[C@@]1(C#N)C[C@H]2[C@H](C(F)(F)F)OC[C@@]2(c2cc(NC(=O)c3cnc(OCF)cn3)ccc2F)N=C1N [7f],,,,5.74,<5,5.43
"C[C@H]1OC[C@]2(c3cc(NC(=O)c4cnc(OCF)cn4)ccc3F)N=C(N)[C@](C)(C#N)C[C@H]12 (single isomer, unassigned) [9b]",,,,8.28,7.19,8.74
CC1OCC2(c3cc(NC(=O)c4ccc(OC(F)F)cn4)ccc3F)N=C(N)C(C)(C#N)CC12 (stereo not shown) [compound 35],6.76 nM,85.1 nM,10 nM,,,
"CC1OCC2(c3cc(NC(=O)c4cnc(-n5cncn5)cn4)ccc3F)N=C(N)C(C)(C#N)CC12 (single isomer, unassigned) [15b]",1550 nM,> 10000 nM,,,,5.62
C[C@]1(C#N)C[C@H]2[C@H](C(F)(F)F)OC[C@@]2(c2cc(NC(=O)c3ccc(C#N)cn3)ccc2F)N=C1N [3d],,,,5.02,<5,<5.05
C[C@]1(C#N)C[C@@H]2[C@@H](C(F)(F)F)OC[C@]2(c2cc(NC(=O)c3ccc(F)cn3)ccc2F)N=C1N [2f],,,,7.83,7.35,7.47
"COc1cnc(C(=O)Nc2ccc(F)c([C@]34CO[C@H](C)[C@H]3C[C@@](C)(S(C)(=O)=O)C(N)=N4)c2)cn1 (single isomer, unassigned) [13a]",,,,7,5.9,7.19
CC1(C#N)CC2C(CF)OCC2(c2cc(NC(=O)c3ccc(C#N)cn3)ccc2F)N=C1N (stereo not shown) [24a],2.14 nM,,2.88 nM,,,
COc1cnc(C(=O)Nc2ccc(F)c([C@@]34CO[C@@H](C)[C@@H]3C[C@@](C)(C#N)C(N)=N4)c2)cn1 [5c],,,,<5,<5,<5.05
C[C@]1(C#N)C[C@@H]2[C@@H](C(F)(F)F)OC[C@]2(c2cc(NC(=O)c3cnc(OCF)cn3)ccc2F)N=C1N [7e],,,,7.68,6.24,7.33
"CC1OCC2(c3cc(NC(=O)c4cnc(-n5cncn5)cn4)ccc3F)N=C(N)C(C)(C#N)CC12 (single isomer, unassigned) [15a]",7.41 nM,158 nM,,,,8.19
C[C@]1(C#N)C[C@H]2[C@H](C(F)(F)F)OC[C@@]2(c2cc(NC(=O)c3ccc(F)cn3)ccc2F)N=C1N [2d],,,,5,<5,<5.05
"CC1OCC2(c3cc(NC(=O)c4ccc(C#N)cn4)cc(F)c3F)N=C(N)C(C)(C#N)CC12 (single isomer, unassigned) [33d]",708 nM,8910 nM,,,,5.78
COc1cnc(C(=O)Nc2ccc(F)c([C@@]34CO[C@@H](C)[C@@H]3C[C@](C)(C#N)C(N)=N4)c2)cn1 [1a],,,,5.05,<5,5.12
"COc1cnc(C(=O)Nc2ccc(F)c([C@@]34CO[C@@H](C)[C@@H]3C[C@@](C)(S(C)(=O)=O)C(N)=N4)c2)cn1 (single isomer, unassigned) [13b]",,,,5.48,<5,5.75
CC(F)(F)[C@H]1OC[C@]2(c3cc(NC(=O)c4cnc(-n5cncn5)cn4)ccc3F)N=C(N)[C@](C)(C#N)C[C@H]12 [16a],4.9 nM,363 nM,16.6 nM,,,
C[C@@]1(C#N)C[C@H]2[C@H](C(F)(F)F)OC[C@@]2(c2cc(NC(=O)c3ccc(C#N)cn3)ccc2F)N=C1N [3e],,,,5.84,<5,5.34
C[C@@H]1OC[C@@]2(c3cc(NC(=O)c4ccc(C#N)cn4)ccc3F)N=C(N)[C@@](C)(C#N)C[C@@H]12 [4c],,,,6.28,5.27,6.22
Cc1cc(C#N)cnc1C(=O)Nc1ccc(F)c(C23COC(C(C)(F)F)C2CC(C)(C#N)C(N)=N3)c1 (stereo not shown) [compound 37],1.91 nM,,1.78 nM,,,
CC1(C#N)CC2C(C(C)(F)F)OCC2(c2cc(NC(=O)c3cnc(OC(F)F)cn3)ccc2F)N=C1N (stereo not shown) [compound 38],0.955 nM,,3.8 nM,,,
Cl.NC1=N[C@]2(c3cc(NC(=O)c4ccc(F)cn4)ccc3F)CO[C@@H](C(F)(F)F)[C@@H]2CC1 [12b],,,,5.27,,5.45
CC(C)(F)[C@H]1OC[C@]2(c3cc(NC(=O)c4ccc(C#N)cn4)ccc3F)N=C(N)[C@](C)(C#N)C[C@H]12 [21a],,,,,,8.62
N#Cc1ccc(C(=O)Nc2ccc(F)c([C@@]34CO[C@@H](C(F)(F)F)[C@@H]3CCC(N)=N4)c2)nc1 [11b],,,,,,5.9

# From US20200062773A1, “4,4a,5,7-TETRAHYDRO-3H-FURO[3,4-b]PYRIDINYL COMPOUNDS” (Janssen Pharmaceutlca NV, priority 2016, published 2020)
